From PubChem BioAssay AID1963838 (Molecular Pharmacology Branch, DTP, NCI, 2024)
Several values for one entry are separate records, joined by “and”; a condition that tells them apart may be missing. Equal entries are not always repeated.

System: 855422-203-R-J1-PDC complex spheroid viability
Experiment: Anticancer human tumor 855422-203-R-J1-PDC patient-derived bladder carcinoma cell line growth inhibition [POLQ]
Conditions: for viability, T/C: stronger effect = lower value
Protocol: Multicellular complex tumor spheroid response to Polymerase (POL) inhibitors (novobiocin, ART-558, RP6685) in combination with a variety of drugs and investigational agents in selected tumor cell lines
The POL inhibitors (novobiocin, ART-558, and RP6685) were evaluated both individually and in combination with standard of care and investigational anticancer small molecules within a complex spheroid model of solid tumors. . Complex spheroids include a stromal component modeled by human endothelial cells (HUVEC) and fibroblasts modeled by human mesenchymal stem cells (MSCs). The concentration ranges selected for each drug and investigational agent were based upon clinically achievable concentrations if the clinical Cmax of the agent was known.
Compounds. The drugs and investigational agents: novobiocin (NSC847541), ART-558 (NSC835418), RP-6685 (NSC848927), peposertib (NSC802822), ceralasertib (NSC780249), elimusertib (NSC800525), camonsertib (NSC841442), AZD-1390 (NSC803789), olaparib (NSC753686), talazoparib (NSC767125), rucaparib (NSC756644), sotorasib (NSC818433), MRTX-1133 (NSC836407), SN-38 (NSC673596), topotecan (NSC609699), epotoside (NSC141540), doxorubicin (NSC123127), gemcitabine (NSC613327), 5-fluorouracil (NSC19893), paclitaxel (NSC125973), vemurafenib (NSC761431), MSA-2 (NSC828583), SN-011 (NSC837082), adavosertib (NSC754352), prexasertib (NSC758257), carboplatin (NSC241240) and oxaliplatin (NSC266046), were obtained from the National Cancer Institute (NCI) Developmental Therapeutics Program Chemical Repository (21). The FDA-approved anticancer drug set is available from the Developmental Therapeutics Program at https://dtp.cancer.gov/organization/dscb/obtaining/. […] The stock solutions were prepared in dimethyl sulfoxide (DMSO, Sigma-Aldrich, St. Louis, MO, cat. D2650), except for the platinum compounds which were prepared in saline (Quality Biological, Gaithersburg, MD, cat. 114-055-101), at 800-fold the tested concentration and stored at -70 degrees C prior to their use. All drugs and investigational agents were tested over a range starting from a high concentration at or near the clinical Cmax and decreasing in half-log increments. If the clinical Cmax for an agent had not been determined, the highest concentration tested was 10 microM, except for SN-38, which was tested at a high concentration of 1 microM.
Cell Culture. All cells were maintained in an incubator at 37 degrees C and 5% CO2 with 95% humidity. The PDC lines were cultured according to standard operating procedures established by the NCI PDMR (https://pdmr.cancer.gov). Table 3 of the manuscript, lists the cell lines along with the number of the three cell types plated to form the mct-spheroids and media for tumor cell growth. After thawing, all PDC lines, except 997537-175-T-J1-PDC and 415267-285-R-J2-PDC, were cultured in Matrigel-coated flasks prepared with a working solution of 1X Ham's F-12 nutrient mix, without supplementation (Thermo Fisher Scientific, cat. 11765054), 100 U/mL penicillin-streptomycin (Thermo Fisher Scientific, cat. 15140122), and 2.5% Matrigel (Corning Inc., Corning, NY, cat. 354248) for the first three passages. The two PDC lines 997537-175-T-J1-PDC and 415267-285-R-J2-PDC were cultured on uncoated flasks. The 857933-349-R-J2-PDC line was cultured in 6C/Colon 1B media containing advanced DMEM/F-12 (Thermo Fisher Scientific, cat. 12634028), 10 mM HEPES (Thermo Fisher Scientific, cat. 15630080), 1X GlutaMAX supplement (Thermo Fisher Scientific, cat. 35050061), 0.1 mg/mL primocin (InvivoGen, San Diego, CA, cat. ant-pm-2), 10% defined fetal bovine serum, heat inactivated (HyClone Laboratories Inc., Logan, UT, cat. SH30070.03HI), 50% L-WRN conditioned media (ATCC, cat. CRL-3276), 1.25 mM N-Acetyl-L-cysteine (Sigma-Aldrich, cat. A9165), 10 mM nicotinamide (Sigma-Aldrich, cat. N0636), 1X B-27 supplement (Thermo Fisher Scientific, cat. 17504044), 1X N-2 supplement (Thermo Fisher Scientific, cat. […]
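Note: spheroids exposed to compounds for seven days before readout.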

CC1COCCN1c1cc(C2(O)CC3CCC(C2)O3)c2cnn(-c3ccn[nH]3)c2n1 (stereo unspecified)
viability, T/C (compound 0.0316 µM): 98.5% and 101% and 111%
viability, T/C (compound 0.1 µM): 49.5% and 43.5% and 74.9%
viability, T/C (compound 0.316 µM): 15.2% and 14.2% and 20.3%
viability, T/C (compound 1 µM): 10.6% and 9.31% and 13.1%
viability, T/C (compound 3.16 µM): 6.4% and 7.44% and 9.6%
viability, T/C (compound 10 µM): 3.63% and 5.73% and 6.18%
IC50 (curve of compound): 98.2 nM and 87.6 nM and 170 nM

COc1cc(C2c3cc4c(cc3C(OC3OC5COC(C)OC5C(O)C3O)C3COC(=O)C23)OCO4)cc(OC)c1O (stereo unspecified) + Nc1ccc(C#CCN(C(=O)Cc2ncc(C(F)(F)F)cc2C(F)(F)F)c2ccc(F)cc2)nn1
IC50 (curve of first compound, second compound 0.0316 µM): 525 nM
IC50 (curve of first compound, second compound 0.1 µM): 477 nM
IC50 (curve of first compound, second compound 0.316 µM): 446 nM
IC50 (curve of first compound, second compound 1 µM): 439 nM
IC50 (curve of first compound, second compound 3.16 µM): 335 nM
IC50 (curve of first compound, second compound 10 µM): 380 nM
viability, T/C (second compound 0.0316 µM, first compound 0.0316 µM): 120%
viability, T/C (second compound 0.0316 µM, first compound 0.1 µM): 127%
viability, T/C (second compound 0.0316 µM, first compound 0.316 µM): 78.5%
viability, T/C (second compound 0.0316 µM, first compound 1 µM): 15%
viability, T/C (second compound 0.0316 µM, first compound 3.16 µM): 10%
viability, T/C (second compound 0.0316 µM, first compound 10 µM): 7.23%
viability, T/C (second compound 0.1 µM, first compound 0.0316 µM): 108%
viability, T/C (second compound 0.1 µM, first compound 0.1 µM): 164%
viability, T/C (second compound 0.1 µM, first compound 0.316 µM): 71.5%
viability, T/C (second compound 0.1 µM, first compound 1 µM): 21%
viability, T/C (second compound 0.1 µM, first compound 3.16 µM): 8.67%
viability, T/C (second compound 0.1 µM, first compound 10 µM): 4.47%
viability, T/C (second compound 0.316 µM, first compound 0.0316 µM): 94.4%
viability, T/C (second compound 0.316 µM, first compound 0.1 µM): 137%
viability, T/C (second compound 0.316 µM, first compound 0.316 µM): 66.1%
viability, T/C (second compound 0.316 µM, first compound 1 µM): 21.8%
viability, T/C (second compound 0.316 µM, first compound 3.16 µM): 10.4%
viability, T/C (second compound 0.316 µM, first compound 10 µM): 4.7%
viability, T/C (second compound 1 µM, first compound 0.0316 µM): 92.2%
viability, T/C (second compound 1 µM, first compound 0.1 µM): 141%
viability, T/C (second compound 1 µM, first compound 0.316 µM): 64.8%
viability, T/C (second compound 1 µM, first compound 1 µM): 23.5%
viability, T/C (second compound 1 µM, first compound 3.16 µM): 10.1%
viability, T/C (second compound 1 µM, first compound 10 µM): 4.86%
viability, T/C (second compound 3.16 µM, first compound 0.0316 µM): 99.3%
viability, T/C (second compound 3.16 µM, first compound 0.1 µM): 135%
viability, T/C (second compound 3.16 µM, first compound 0.316 µM): 52%
viability, T/C (second compound 3.16 µM, first compound 1 µM): 20.5%
viability, T/C (second compound 3.16 µM, first compound 3.16 µM): 10.7%
viability, T/C (second compound 3.16 µM, first compound 10 µM): 4.56%
viability, T/C (second compound 10 µM, first compound 0.0316 µM): 105%
viability, T/C (second compound 10 µM, first compound 0.1 µM): 114%
viability, T/C (second compound 10 µM, first compound 0.316 µM): 56.5%
viability, T/C (second compound 10 µM, first compound 1 µM): 19.5%
viability, T/C (second compound 10 µM, first compound 3.16 µM): 11.1%
viability, T/C (second compound 10 µM, first compound 10 µM): 5.88%

C#Cc1c(F)ccc2cc(O)cc(-c3ncc4c(N5CC6CCC(C5)N6)nc(OCC56CCCN5CC(F)C6)nc4c3F)c12 (stereo unspecified)
viability, T/C (compound 0.0316 µM): 120% and 105% and 97.1%
viability, T/C (compound 0.1 µM): 106% and 100% and 107%
viability, T/C (compound 0.316 µM): 87.3% and 94.5% and 105%
viability, T/C (compound 1 µM): 98.4% (2×) and 94.2%
viability, T/C (compound 3.16 µM): 97.4% and 109% and 119%
viability, T/C (compound 10 µM): 104% and 98% and 121%
IC50 (curve of compound): > 10000 nM
